Like-named read-outs stand apart in the source and are kept apart here.
Experiments:
Leukemia T = assay: Inhibition of primary tumor cell cultures (48 hours) vs NK1 receptor immunostaining (Example 1); type: cell-based; conditions: Homo sapiens, 1 micromolar, read-out: Percentage of inhibition of cell cultures
Procedure: (§1) Cell cultures. To obtain tumor cells from human primary tumors we used the method described in De Bari et al. (De Bari et al. 2001). Briefly, small pieces of the tumors were digested into a hyaluronidase solution (Sigma-Aldrich, USA) at a concentration of 1 mg/ml during 15 minutes at 37°C, and then they were treated with 6 mg/ml of collagenase type IV (Invitrogen) during 2 hours at 37°C. Consecutively, cells were washed, and resuspended in the DMEM culture medium with high concentration of glucose (Dulbecco's Modified Eagle's Medium, Invitrogen) supplemented with 1% of antibiotics-antimycotics (Invitrogen) and with 1% of sodium pyruvate (Invitrogen), and the cells were seeded in culture slides at a concentration of 10.000 cells per square centimeter. When cells reached confluence, the adherent cells were separated using sterile trypsin at 0,5% (Invitrogen) and they were used among passages 3 and 9. For the assays shown next, tumor cells were seeded on slides at a concentration of 25.000 cells per well. A total of 6 wells containing the tumor cells were used as survival control. […] All the cultures were kept during 48 hours and later on recollected for their analysis.
(§2) Immunohistochemistry techniques. The presence of NK1 receptors was also analyzed using immunohistochemistry techniques. Briefly, a sample of each of the cultures of the cell lines used in the present invention, was centrifuged (5 minutes at 1.500 rpm) and the pellet obtained was dehydrated using increasing concentrations of ethanol and, finally, xylol. Then, said dehydrated samples were embedded in paraffin, creating a block of cells. Such paraffin blocks were cut with a microtome at 5 microns thickness, and were placed on microscope slides adequate to perform immunohistochemistry techniques. Consecutively, they were de-paraffinized by immersing them in xylol, to be finally hydrated using a solution containing decreasing concentrations of ethanol, and finally submerged them into water. […] After this, the samples were left to cool down at room temperature for 10 minutes. The endogenous peroxidase activity was blocked with 3% peroxide of hydrogen for 30 minutes at room temperature. After washing the samples with 0.05 M of Tris buffer, they were incubated with 10% non-immune pork serum at for 30 minutes at room temperature. To analyze the expression of NK1 receptors, the cellular samples were incubated in the presence of anti-NK1 antibodies (S8305, Sigma-Aldrich) diluted 1:1000, overnight at 4°C. Afterwards, the samples were washed in Tris buffer 0.05 M at room temperature. The next step was the addition of Envision System-HRP (Dako) reagents for 30 minutes at room temperature. Then, the samples were washed again in Tris buffer 0.05 M and the immunoreactivity was visualized through light microscopy with a chromogenic solution containing 3,3'-Diaminobenzidine (DAB+; Dako, USA). To differentiate the cell nuclei, they were slightly stained with hematoxylin. As negative control, it was used samples not incubated with the primary antibody anti-NK1, which was replaced by non-immune serum. All the samples were evaluated.
(§3) To value the immunostaining in each of the cases six cuts were performed to be analyzed by the immunohistochemistry technique. In each of the six cuts, it was counted cells in 20 fields (magnification 400x) using an Olympus microscope (model CX31). In each field it was counted the total number of cells and the number of cells presenting immunostaining, calculating afterwards the percentage of cells which presented immunostaining.

Melanoma = assay: as above; type: cell-based; conditions: Homo sapiens, 1 micromolar, read-out: Percentage of inhibition of cell cultures
Procedure: as §1, §2, §3

[1] = test system: Carcinoma of the uterine cervix (Squamous cell carcinoma); assay: Inhibition of primary tumor cell cultures vs Kras mutation (Example 2); type: cell-based, human; conditions: 100 micromolar; for inhibition at 100 µM: Homo sapiens, read-out: Percentage of inhibition of cell cultures; for Percentage of inhibition of cell cultures: Carcinoma of the uterine cervix (Squamous cell carcinoma)
Procedure: as §1
(§4) In each case the presence or not of mutations in K-ras gene was determined.
(§5) To determine the existence of mutations in the K-ras gene DNA from cancer tumor cells was extracted from samples obtained from the different cancer tumor cells, using DNA extraction kits from Takara (Madison, WI, US) or Ambion (Huntingdon, Cambridgeshire, United Kingdom), following the manufacturer's instructions, and as it has been previously published (Di Fiore F, et al. 2007). Consecutively it was analyzed by sequencing the exon 2 of the KRAS gene, , by means of PCR amplification from previously extracted cancer tumor DNA, using the following sense primer (SEQ ID NO. 15): 5'-[sequence]-3' and anti-sense primer (SEQ ID NO. 16): 5'-[sequence]-3'. After the purification using the Qiagen extraction kit, the PCR products were sequenced using the Big Dye Terminator Kit V3.1 (Applied Biosystems, Foster City, CA, U.S.) and an ABI Prism 377 or 3100 DNA sequencer (Applied Biosystems). The presence of a heterozygous mutation in the KRAS gene in cancer tumor cells of the cultures was defined as the appearance of a mutant peak of a height of at least a third of the wild type. All the sequence analysis were executed at least twice in two independent PCR.
(§6) The antibody against NK1 receptor (Table 16) was used at 1/50 concentration. The percentages of inhibition are expressed in percentage of variation in relation to control ± standard deviation.

Glioma (astrocytoma) = assay: as above; type: cell-based, human; conditions: 100 micromolar; for inhibition at 100 µM: Homo sapiens, read-out: Percentage of inhibition of cell cultures; for Percentage of inhibition of cell cultures: Glioma (astrocytoma)
Procedure: as §1, §4, §5, §6

Ovarian carcinoma = assay: Inhibition of primary tumor cell cultures (48 hours) vs NK1 receptor immunostaining (Example 1); type: cell-based; conditions: Homo sapiens, 1 micromolar, read-out: Percentage of inhibition of cell cultures
Procedure: as §1, §2, §3

Non Hodgkin Lymphoma T = assay: as above; type: cell-based; conditions: Homo sapiens, 1 micromolar, read-out: Percentage of inhibition of cell cultures
Procedure: as §1, §2, §3

[2] = test system: human primary tumor cells; assay: Inhibition of primary tumor cell cultures vs constitutively activated form of NK1 receptor (Example 7; tumor type per table line); type: cell-based
Procedure: as §1
It was determined the increase or not in proliferation with the exposition to substance P (NK1 receptor agonist), so that for the cell cultures which grew independently from the exposition to substance P, it was considered that they have constitutively activated forms of such receptor, because a mitogenic signal independently from the presence of the agonist was transmitted. It was checked that all tumor cells presented integrity in the MAP Kinases and PI3 Kinases pathways, as wel as in the K-ras gene, and the protein derived from it.

[3] = NK1 receptor immunostaining Group 1 (less than 20% of the cells)
[4] = NK1 receptor immunostaining Group 2 (20-80% of the cells)
[5] = NK1 receptor immunostaining Group 3 (more than 80% of the cells)
[6] = NK1 receptor immunostaining Intensity grade 1
[7] = NK1 receptor immunostaining Intensity grade 2
[8] = NK1 receptor immunostaining Intensity grade 3
[9] = Cases with Kras non-mutated (wild type)

Compound	inhibition at 1 µM (Leukemia T; [3]) [%]	inhibition at 1 µM (Leukemia T; [4]) [%]	inhibition at 1 µM (Leukemia T; [5]) [%]	inhibition at 1 µM (Leukemia T; [6]) [%]	inhibition at 1 µM (Leukemia T; [7]) [%]	inhibition at 1 µM (Leukemia T; [8]) [%]	inhibition at 1 µM (Melanoma; [3]) [%]	inhibition at 1 µM (Melanoma; [4]) [%]	inhibition at 1 µM (Melanoma; [5]) [%]	inhibition at 1 µM (Melanoma; [6]) [%]	inhibition at 1 µM (Melanoma; [7]) [%]	inhibition at 1 µM (Melanoma; [8]) [%]	inhibition at 1 µM (Ovarian carcinoma; [3]) [%]	inhibition at 1 µM (Ovarian carcinoma; [4]) [%]	inhibition at 1 µM (Ovarian carcinoma; [5]) [%]	inhibition at 1 µM (Ovarian carcinoma; [6]) [%]	inhibition at 1 µM (Ovarian carcinoma; [7]) [%]	inhibition at 1 µM (Ovarian carcinoma; [8]) [%]	inhibition at 1 µM (Non Hodgkin Lymphoma T; [3]) [%]	inhibition at 1 µM (Non Hodgkin Lymphoma T; [4]) [%]	other results
CC(=O)N1CCN([C@H]2CCN(C(=O)N(C)[C@H](C)c3cc(C(F)(F)F)cc(C(F)(F)F)c3)[C@@H](c3ccc(F)cc3C)C2)CC1 [Casopitant]	16 ± 2	47 ± 5	95 ± 3	34 ± 2	56 ± 4	93 ± 3	15 ± 3	46 ± 4	93 ± 5	34 ± 3	52 ± 4	93 ± 3	14 ± 3	49 ± 3	94 ± 4	33 ± 4	54 ± 4	91 ± 3	14 ± 2	46 ± 6	inhibition at 100 µM ([1]; Cases with Kras mutated): 27 ± 3%; inhibition at 100 µM [1, 9]: 93 ± 3%; inhibition at 100 µM (Glioma (astrocytoma); Cases with Kras mutated): 26 ± 4%; inhibition at 100 µM (Glioma (astrocytoma); [9]): 94 ± 6%; inhibition at 1 µM (Non Hodgkin Lymphoma T; [5]): 94 ± 5%; inhibition at 1 µM (Non Hodgkin Lymphoma T; [6]): 36 ± 5%; inhibition at 1 µM (Non Hodgkin Lymphoma T; [7]): 54 ± 5%; inhibition at 1 µM (Non Hodgkin Lymphoma T; [8]): 92 ± 2%
C[C@@H](O[C@H]1OCCN(Cc2n[nH]c(=O)[nH]2)[C@H]1c1ccc(F)cc1)c1cc(C(F)(F)F)cc(C(F)(F)F)c1 [Aprepitant]	–	–	–	–	–	–	–	–	–	–	–	–	–	–	–	–	–	–	–	–	Percentage of inhibition of cell cultures ([2]; Non Hodgkin Lymphoma B (diffuse B cell lymphoma), Group I (constitutively activated form of NK1 receptor)): 74±6%; Percentage of inhibition of cell cultures ([2]; Non Hodgkin Lymphoma T (diffuse T cell lymphoma), Group I (constitutively activated form of NK1 receptor)): 75±6%; Percentage of inhibition of cell cultures ([2]; Non Hodgkin Lymphoma T (diffuse T cell lymphoma), Group II (normal form of the receptor)): 96±4%; inhibition of tumor cell growth ([2]; group with little proliferating response when exposed to substance P (constitutively activated form of NK1 receptor), compared): higher inhibition
Cc1cc(F)ccc1[C@H]1CNCCN1C(=O)N(C)[C@H](C)c1cc(C(F)(F)F)cc(C(F)(F)F)c1 [Vestipitant]	17 ± 4	46 ± 3	94 ± 4	15 ± 3	48 ± 4	94 ± 5	16 ± 3	45 ± 4	92 ± 6	15 ± 3	48 ± 4	92 ± 4	14 ± 4	47 ± 4	95 ± 5	15 ± 3	46 ± 2	95 ± 4	13 ± 4	46 ± 4	Percentage of inhibition of cell cultures ([1]; Cases with Kras mutated): 25±5 percentage; Percentage of inhibition of cell cultures [1, 9]: 94±3 percentage; Percentage of inhibition of cell cultures (Glioma (astrocytoma); Cases with Kras mutated): 25±3 percentage; Percentage of inhibition of cell cultures (Glioma (astrocytoma); [9]): 97±5 percentage; inhibition at 1 µM (Non Hodgkin Lymphoma T; [5]): 93 ± 6%; inhibition at 1 µM (Non Hodgkin Lymphoma T; [6]): 17 ± 2%; inhibition at 1 µM (Non Hodgkin Lymphoma T; [7]): 48 ± 4%; inhibition at 1 µM (Non Hodgkin Lymphoma T; [8]): 93 ± 5%
